The text below walks through data of patent US10500218B2, “Uptake of pharmaceuticals within cyclodextrin-based porous materials” (Northwestern University, priority 2015, dated 2019).

Data set [1] relates to MDA-MB-231 (human breast adenocarcinoma). Put plainly: Growth inhibition / cell viability (Cell Titer-Glo) on MDA-MB-231 cells. The data set is classed as cell-based. Particulars: 48 hours, tested up to 100 μM. The method, then:
(§1) Toxicity studies of both CD-MOF-1 and ibuprofen were carried out in vitro on two cell lines: MCF-10A (human mammary epithelial cells) (FIG. 4A) and MDA-MB-231 (human breast adenocarcinoma) (FIG. 4B). For both cell lines, no IC50 value could be obtained for CD-MOF-1, and ibuprofen up to concentrations of 100 μM.
(§2) Cell Studies. For cell studies, CD-MOF-1 was solubilized in H2O and the free-acid of ibuprofen was solubilized in Me2SO. The growth inhibition of various cell lines was determined according to the protocols from the NCl/NIH Developmental Therapeutics Program, and in collaboration with the Northwestern University Developmental Therapeutics Core Facility. Cells were plated in triplicate in 96 well plates. The cells were plated at densities of 10,000 per well in 90 μL for MDA-MB-231; and 25,000 per well in 90 μL for MCF-10A. The MDA-MB-231 cells were cultured in RPMI1640 media supplemented with 10% Fetal Bovine Serum (FBS), and 2 mM glutamine with 5% CO2 at 37° C. For experiments, 5% of FBS and 50 μg/mL of gentamycin were used. […]
(§3) Time zero cells (Tz) were processed according to the Promega Cell Titer Glo, and the following day Cell Titer-Glo Luminescent Cell Viability Assay. […] The plates were shaken for 2 min and allowed to sit for activation prior to reading for 10 min. Plates were read on a BioTek reader using the luminescence program.
(In general: Cellular ATP, detected with luciferase, serves as a proxy for viable cell number.)

Data set [2] concerns MCF-10A (human mammary epithelial cells). Put plainly: Growth inhibition / cell viability (Cell Titer-Glo) on MCF-10A cells. The data set is classed as cell-based. The following applies: 48 hours, tested up to 100 μM. Here is the method: as §1, §2, §3
The nature of data set [3]: Storage under ambient conditions: hygroscopicity and crystallinity (PXRD). The data set is classed as physicochemical. The following applies: atmospheric / ambient conditions, several months for the CD-MOF-1 formulation. Here is the method:
FIG. 3A depicts powder X-ray diffraction (PXRD) of freshly prepared CD-MOF-1 formulations of ibuprofen prepared by co-crystallization from the potassium salt of ibuprofen and adsorption of the deprotonated acid form of ibuprofen within a pre-existing CD-MOF-1, compared to the predicted I432 diffraction pattern.
Three formulations were tested: ibuprofen, potassium salt, and a physical mixture of 23 wt. % ibuprofen, potassium salt with γ-CD (which is analogous to a stoichiometric loading of ibuprofen within CD-MOF-1 created by co-crystallization) were used as control samples, and the third formulation contained CD-MOF-1 loaded with 26 wt. % ibuprofen by the adsorption protocol. The potassium salt of ibuprofen was considered to be the most appropriate control form of ibuprofen in this study, as the results of the solvent-dependent adsorption loading of ibuprofen is evidence that an anion exchange process was occurring within CD-MOf-1, i.e., deprotonation of the free-acid form of ibuprofen, which was facilitated by water-miscible polar solvents. […] It is used, however, in rapid release gelatin capsules.

As a reminder, the IC50 is the concentration that inhibits the measured activity by half. Low values mean higher potency, high ones lower potency. As for `CC(C)Cc1ccc(C(C)C(=O)O)cc1` (racemic) [ibuprofen], the IC50 in data set [1] and in data set [2] was more than 100 µM in each case.
`CC(C)Cc1ccc(C(C)C(=O)[O-])cc1.[K+]` (stereo not drawn) [potassium salt of ibuprofen, ibuprofen, potassium salt]: in data set [3], the hygroscopicity result is “very hygroscopic”.
